14 compounds from ChEMBL document CHEMBL1129210, “Epidermal growth factor receptor tyrosine kinase: Structure-activity relationships and antitumour activity of novel quinazolines” (Bioorg Med Chem Lett, 1997) can be followed below.

This test deals with Epidermal growth factor receptor (Homo sapiens, UniProt P00533). The test is described as follows: Tested for inhibition of Epidermal growth factor receptor from A431 vulval squamous carcinoma cells.
Chain of Epidermal growth factor receptor (P00533 whole entry): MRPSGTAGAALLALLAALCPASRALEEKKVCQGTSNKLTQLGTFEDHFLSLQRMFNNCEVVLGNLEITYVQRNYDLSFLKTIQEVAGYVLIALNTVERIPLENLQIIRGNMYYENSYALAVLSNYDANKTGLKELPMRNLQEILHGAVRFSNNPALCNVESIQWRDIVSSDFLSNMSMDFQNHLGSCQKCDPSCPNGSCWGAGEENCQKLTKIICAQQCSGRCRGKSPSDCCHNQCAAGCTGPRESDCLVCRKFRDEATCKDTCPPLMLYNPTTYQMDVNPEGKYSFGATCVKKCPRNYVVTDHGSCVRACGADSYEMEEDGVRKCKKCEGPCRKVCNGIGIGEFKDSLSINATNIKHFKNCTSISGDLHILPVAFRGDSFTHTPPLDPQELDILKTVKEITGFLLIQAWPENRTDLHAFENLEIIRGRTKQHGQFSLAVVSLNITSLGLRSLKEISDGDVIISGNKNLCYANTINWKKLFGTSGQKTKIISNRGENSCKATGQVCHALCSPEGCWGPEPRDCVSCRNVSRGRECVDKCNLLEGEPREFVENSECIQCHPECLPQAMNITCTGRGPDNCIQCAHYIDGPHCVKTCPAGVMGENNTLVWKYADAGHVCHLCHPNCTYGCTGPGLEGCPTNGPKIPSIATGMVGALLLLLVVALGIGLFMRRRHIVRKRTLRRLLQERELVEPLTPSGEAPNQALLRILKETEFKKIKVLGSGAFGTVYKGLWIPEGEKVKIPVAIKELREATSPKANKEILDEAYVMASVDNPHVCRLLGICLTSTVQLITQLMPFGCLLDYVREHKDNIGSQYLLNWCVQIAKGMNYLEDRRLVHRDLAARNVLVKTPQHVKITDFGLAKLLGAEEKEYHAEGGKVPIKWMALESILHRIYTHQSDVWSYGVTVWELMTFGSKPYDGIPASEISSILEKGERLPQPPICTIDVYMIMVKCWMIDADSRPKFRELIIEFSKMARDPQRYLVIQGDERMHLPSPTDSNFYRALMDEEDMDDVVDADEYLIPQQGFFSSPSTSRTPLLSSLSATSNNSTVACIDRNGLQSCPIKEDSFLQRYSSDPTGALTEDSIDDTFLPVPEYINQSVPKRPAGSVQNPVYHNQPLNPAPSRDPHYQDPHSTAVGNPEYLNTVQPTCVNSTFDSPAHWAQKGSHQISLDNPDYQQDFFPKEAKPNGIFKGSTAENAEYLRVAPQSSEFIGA
With `COc1cc2ncnc(N3CCc4ccccc43)c2cc1OC`, half-maximal inhibition (IC50) was put at 0.82 µM.

Take `COc1cc2ncnc(Nc3cncc4ccccc34)c2cc1OC`: the IC50 (usually the concentration that inhibits the measured activity by half) was found to be 0.0064 µM. Next, `COc1cc2ncnc(Nc3nccc4ccccc34)c2cc1OC`: 0.2 µM; `COc1cc2ncnc(Nc3cnc4ccccc4n3)c2cc1OC`: 0.78 µM; `COc1cc2ncnc(NC3CC3c3ccccc3)c2cc1OC` (centres undefined): 0.01 µM. The result for `COc1cc2ncnc(NC3CC3c3ccccc3)c2cc1OCCN1CCOCC1` (centres undefined) reads 0.3 µM; that for `COc1cc2ncnc(NNc3ccc(F)c(Cl)c3)c2cc1OC`, 0.43 µM; that for `COc1cc2ncnc(NC3CC3c3ccccc3)c2cc1OC(C)=O` (centres undefined), 0.084 µM.

On to `COc1cc2ncnc(Nc3nnc4ccccc4n3)c2cc1OC`, for which the midpoint of inhibition, the IC50, lay at 0.82 µM.

Take `COc1cc2ncnc(NC3CC3c3ccccc3)c2cc1OCCCN(C)C` (centres undefined): half-maximal inhibition (IC50) was put at 0.027 µM. `COc1cc2ncnc(/N=N/c3ccc(F)c(Cl)c3)c2cc1OC`: inhibition was half-maximal at 0.73 µM (IC50). The result for `COc1cc2ncnc(NCc3cccc(C)c3)c2cc1OC` reads 0.17 µM; that for `COc1cc2ncnc(NC3CC3c3ccccc3)c2cc1O` (centres undefined), 0.39 µM.

`COc1cc2ncnc(NC3CCc4ccccc43)c2cc1OC` (centres undefined) yielded an IC50 of 0.91 µM.
